The values that follow come from patent publication US9834542B2, “LXR modulators” (BRISTOL-MYERS SQUIBB COMPANY, priority 2013, dated 2017).

By EC50 is commonly meant the concentration that produces a half-maximal response. Lower therefore signals greater potency.

This experiment concerns the target T1, LXRβ (Homo sapiens, UniProt P55055).
T1 construct: Co-transfection expression plasmids, comprising full-length LXRα (pCMX-h LXRα[…] or LXRβ (pCMX-hLXRβ)); expressed in transfected cells; host or cells: CV-1 African Green Monkey Kidney Cells
T1 sequence (P55055 1-460): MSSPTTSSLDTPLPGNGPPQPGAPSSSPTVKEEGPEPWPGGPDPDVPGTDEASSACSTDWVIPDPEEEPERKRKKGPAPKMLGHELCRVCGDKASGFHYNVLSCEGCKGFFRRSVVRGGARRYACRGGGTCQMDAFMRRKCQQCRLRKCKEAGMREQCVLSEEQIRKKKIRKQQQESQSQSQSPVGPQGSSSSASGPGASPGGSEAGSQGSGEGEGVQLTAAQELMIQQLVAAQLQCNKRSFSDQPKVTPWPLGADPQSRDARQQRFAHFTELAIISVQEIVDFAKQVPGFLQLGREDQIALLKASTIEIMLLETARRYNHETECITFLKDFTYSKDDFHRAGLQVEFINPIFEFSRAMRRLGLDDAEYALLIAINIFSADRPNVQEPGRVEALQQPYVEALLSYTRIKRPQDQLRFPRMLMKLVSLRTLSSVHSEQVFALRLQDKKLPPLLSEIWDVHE
T1 sequence (P19793 1-462 partner): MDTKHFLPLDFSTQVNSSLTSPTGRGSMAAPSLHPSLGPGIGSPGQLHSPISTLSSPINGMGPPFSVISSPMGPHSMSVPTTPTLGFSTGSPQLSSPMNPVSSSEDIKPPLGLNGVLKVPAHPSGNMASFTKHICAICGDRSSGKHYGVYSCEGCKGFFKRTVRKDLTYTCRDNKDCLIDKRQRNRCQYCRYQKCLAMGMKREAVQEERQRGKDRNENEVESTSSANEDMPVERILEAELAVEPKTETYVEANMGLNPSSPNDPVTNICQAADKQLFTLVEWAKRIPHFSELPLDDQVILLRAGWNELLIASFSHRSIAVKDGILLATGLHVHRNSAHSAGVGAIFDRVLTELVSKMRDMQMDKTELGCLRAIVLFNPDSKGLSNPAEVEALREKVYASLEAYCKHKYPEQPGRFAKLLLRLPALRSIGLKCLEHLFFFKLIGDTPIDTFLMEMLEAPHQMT
The experiment in a line: Co-transfection assay (LXRE luciferase reporter), LXRβ. The experiment is classed as cell-based. The conditions noted are these: for EC50: CV-1 cells transfected with pCMX-hLXRβ and LXREx1-Tk-Luciferase, 20 hours incubation; for Emax: LXRβ co-transfection, relative to high control 1-(2,4-difluorobenzyl)-2-oxo-6-(4-phenoxyphenyl)-4-(trifluoromethyl)-1,2-dihydropyridine-3-carbonitrile, read-out: % Efficacy. Put shortly: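 CV-1 cells transiently co-transfected with full-length human LXRβ (or LXRα), LXREx1-Tk-luciferase reporter and β-galactosidase control; compound added (10 μM final in single-point, 11-point ½-log curves, ≤0.5% DMSO) for 20 h at 37 °C. Luciferase read; EC50 from four-parameter fit, efficacy relative to reference agonist high control.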
For orientation: A reporter such as luciferase makes a cellular process visible.

Consider `Cc1nc(C(F)(F)F)cn1-c1ccc(-c2cc(F)c(CO)c(S(C)(=O)=O)c2)cc1-c1cnnn1-c1ccc(OC(F)(F)F)cc1` [Example 244, [3-fluoro-5-(methylsulfonyl)-4′-[2-methyl-4-(trifluoromethyl)-1H-imidazol-1-yl]-3′-(1-{4-[(trifluoromethyl)oxy]phenyl}-1H-1,2,3-triazol-5-yl)biphenyl-4-yl]methanol], for which the EC50 was found to be 223 nM and the Emax was determined as 110%.
On the same counts, the results for `Cc1nc(-c2cc(-c3cccc(S(C)(=O)=O)c3)ccc2-n2cc(C(F)(F)F)nc2C)c(-c2ccc(OC3CCCCC3)nc2)o1` [Example 408, 5-(6-(cyclohexyloxy)pyridin-3-yl)-2-methyl-4-(4-(2-methyl-4-(trifluoromethyl)-1H-imidazol-1-yl)-3′-(methylsulfonyl)biphenyl-3-yl)oxazole] are 332 nM and 55%.
On the same counts, the results for `Cc1nc(C(F)(F)F)cn1-c1ccc(-c2cccc(S(C)(=O)=O)c2)cc1-n1nncc1-c1ccc(F)c(F)c1` [Example 34, 5-(3,4-difluorophenyl)-1-{3′-(methylsulfonyl)-4-[2-methyl-4-(trifluoromethyl)-1H-imidazol-1-yl]biphenyl-3-yl}-1H-1,2,3-triazole] are 661 nM and 94%.
Take `CNS(=O)(=O)c1cccc(-c2ccc(-n3cc(C(F)F)nc3C)c(-n3nncc3-c3ccc(OC(F)(F)F)cc3)c2)c1` [Example 154, 4′-[4-(difluoromethyl)-2-methyl-1H-imidazol-1-yl]-N-methyl-3′-(5-{4-[(trifluoromethyl)oxy]phenyl}-1H-1,2,3-triazol-1-yl)biphenyl-3-sulfonamide]: a half-maximal effect (EC50) was put at 527 nM and the Emax came out at 91%.
`Cc1nc(-c2cc(-c3cc(F)c(CO)c(S(C)(=O)=O)c3)ccc2-n2cc(C(F)(F)F)nc2C)c(-c2ccc(N3CCCC3=O)cc2)o1` [Example 501]: it took 1620 nM to reach a half-maximal effect (EC50) and the Emax was determined as 38%.
On to `Cc1nc(C(F)(F)F)cn1-c1ccc(-c2cc(F)c(CO)c(S(C)(=O)=O)c2)cc1-c1nc(C(C)C)oc1-c1ccc2c(c1)OC(F)(F)O2` [Example 481, (3′-(5-(2,2-difluorobenzo[d][1,3]dioxol-5-yl)-2-isopropyloxazol-4-yl)-3-fluoro-4′-(2-methyl-4-(trifluoromethyl)-1H-imidazol-1-yl)-5-(methylsulfonyl)biphenyl-4-yl)methanol], for which the EC50 came out at 54 nM and the Emax was determined as 66%.
The like results for `Cc1nc(C(C)(F)F)cn1-c1ccc(-c2cc(F)c(CO)c(S(C)(=O)=O)c2)cc1-n1nncc1-c1ccc(OC(F)(F)F)cc1` [Example 174, {4′-[4-(1,1-difluoroethyl)-2-methyl-1H-imidazol-1-yl]-3-fluoro-5-(methylsulfonyl)-3′-(5-{4-[(trifluoromethyl)oxy]phenyl}-1H-1,2,3-triazol-1-yl)biphenyl-4-yl}methanol] were, in that order, 467 nM and 88%.
On the same counts, the results for `Cc1nc(-c2cc(-c3cccc(S(C)(=O)=O)c3)ccc2-n2cc(C(F)(F)F)nc2C)c(-c2ccc(OCC(F)F)c(F)c2)o1` [Example 425, 5-(4-(2,2-difluoroethoxy)-3-fluorophenyl)-2-methyl-4-(4-(2-methyl-4-(trifluoromethyl)-1H-imidazol-1-yl)-3′-(methylsulfonyl)biphenyl-3-yl)oxazole] are 203 nM and 71%.
Turning to `Cc1nc(-c2cc(-c3ccc(CO)c(S(C)(=O)=O)c3)ccc2-n2cc(C(F)(F)F)nc2C)c(-c2cc(F)c(OC(F)F)c(F)c2)o1` [Example 469, (3′-(5-(4-(difluoromethoxy)-3,5-difluorophenyl)-2-methyloxazol-4-yl)-4′-(2-methyl-4-(trifluoromethyl)-1H-imidazol-1-yl)-3-(methylsulfonyl)biphenyl-4-yl)methanol], the concentration for a half-maximal effect (EC50) came to 89 nM and the Emax was found to be 70%.
On to `Cc1nc(C(F)(F)F)cn1-c1ccc(-c2cc(F)c(CCO)c(S(C)(=O)=O)c2)cc1-n1nncc1-c1ccc(OC(F)(F)F)cc1` [Example 237, 2-(3-fluoro-4′-(2-methyl-4-(trifluoromethyl)-1H-imidazol-1-yl)-5-(methylsulfonyl)-3′-(5-(4-(trifluoromethoxy)phenyl)-1H-1,2,3-triazol-1-yl)-[1,1′-biphenyl]-4-yl)ethanol], for which a half-maximal effect (EC50) was put at 192 nM and the Emax turned out to be 98%.
As to `Cc1nc(-c2cc(-c3cccc(S(C)(=O)=O)c3)ccc2-n2cc(C(F)(F)F)nc2C)c(-c2ccc(OCC3CC3)c(F)c2)o1` [Example 404, 5-(4-(cyclopropylmethoxy)-3-fluorophenyl)-2-methyl-4-(4-(2-methyl-4-(trifluoromethyl)-1H-imidazol-1-yl)-3′-(methylsulfonyl)biphenyl-3-yl)oxazole], the EC50 stood at 159 nM and the Emax came out at 69%.
In the case of `Cc1nc(C(F)(F)F)cn1-c1ccc(-c2cc(F)c(CO)c(S(C)(=O)=O)c2)cc1-c1oc(C(C)C)nc1-c1ccc(OC(F)(F)F)cc1` [Example 601, {3-fluoro-3′-[2-(1-methylethyl)-4-{4-[(trifluoromethyl)oxy]phenyl}-1,3-oxazol-5-yl]-5-(methylsulfonyl)-4′-[2-methyl-4-(trifluoromethyl)-1H-imidazol-1-yl]biphenyl-4-yl}methanol], a half-maximal response (EC50) required 30 nM and the Emax came out at 74%.
Consider `Cc1nc(-c2cc(-c3cccc(S(C)(=O)=O)c3)ccc2-n2cc(C(F)(F)F)nc2C)c(-c2cccnc2Cl)o1` [Example 552, 5-(2-chloropyridin-3-yl)-2-methyl-4-(4-(2-methyl-4-(trifluoromethyl)-1H-imidazol-1-yl)-3′-(methylsulfonyl)-[1,1′-biphenyl]-3-yl)oxazole], for which the EC50 turned out to be 913 nM and the Emax worked out at 82%.
With `Cc1nc(C(F)(F)F)cn1-c1ccc(-c2cccc(S(C)(=O)=O)c2)cc1-c1nc(C(C)CO)oc1-c1ccc(OC(F)(F)F)cc1` (stereo not shown) [Example 565, 2-(4-(4-(2-methyl-4-(trifluoromethyl)-1H-imidazol-1-yl)-3′-(methylsulfonyl)-[1,1′-biphenyl]-3-yl)-5-(4-(trifluoromethoxy)phenyl)oxazol-2-yl)propan-1-ol], the EC50 is 354 nM and the Emax is 30%.
As for `CS(=O)(=O)c1cccc(-c2ccc(-n3cnc(C(F)(F)F)c3)c(-n3nncc3-c3ccc(Cl)cc3)c2)c1` [Example 13, 5-(4-chlorophenyl)-1-{3′-(methylsulfonyl)-4-[4-(trifluoromethyl)-1H-imidazol-1-yl]biphenyl-3-yl}-1H-1,2,3-triazole], a half-maximal effect (EC50) was put at 957 nM and the Emax was found to be 74%.
On the same counts, the results for `Cc1nc(-c2cc(-c3cccc(S(C)(=O)=O)c3)ccc2-n2cc(C(F)(F)F)nc2C)c(-c2ccc(OC(F)F)c(Cl)c2)o1` [Example 398, 5-(3-chloro-4-(difluoromethoxy)phenyl)-2-methyl-4-(4-(2-methyl-4-(trifluoromethyl)-1H-imidazol-1-yl)-3′-(methylsulfonyl)biphenyl-3-yl)oxazole] are 55 nM and 79%.
As to `Cc1nc(C(F)(F)F)cn1-c1c(F)cc(-c2cccc(S(C)(=O)=O)c2)cc1-n1nncc1-c1ccc(Cl)cc1Cl` [Example 8, 5-(2,4-dichlorophenyl)-1-{5-fluoro-3′-(methylsulfonyl)-4-[2-methyl-4-(trifluoromethyl)-1H-imidazol-1-yl]biphenyl-3-yl}-1H-1,2,3-triazole], the EC50 stood at 143 nM and the Emax is 91%.
